pIC50: −log10 of the molar value.
Experiments:
[1] = tested on: HCT116 cells; experiment: MTT cytotoxicity screening, human colon cancer cell line HCT116; assay type: cell-based; conditions: Homo sapiens, HCT-116, 48 hrs incubation, absorbance 490 nm, primary screening, read-out: IC50
Procedure, shortened: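 HCT116 cells seeded at 2.5×10^4 cells/ml, treated 24 h later for 48 h with compounds in medium (final DMSO 0.1%-0.001% v/v); dose series 100 μM–1 μM or 10 μM–62.5 nM, primary screen at 100 and 10 μM. Viability read by MTT (4 h, 37° C), formazan dissolved in DMSO, absorbance 490 nm.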

[2] = tested on: Human Colon Carcinoma HCT116 xenograft; experiment: In vivo human colon carcinoma HCT116 xenograft test; set-up: species or system BALB/cASlac-nu mice
Experimental: (E)-3-(2-Chlorophenyl)-1-(2-hydroxy-4,6-dimethoxy-3-(1,2,3,6-tetrahydropyridine-4-yl)phenyl)-2-propylene-1-one hydrochloride, B2, was dissolved in a pyrogen-free, sterile PBS solution containing 1% dimethyl sulfoxide (DMSO). For daily injections, a freshly prepared solution was stored at 4° C. Before injection the B2 solution was warmed up to 37° C. and vigorously agitated in a vortex. B2 was administered through intraperitoneal injection (i.p.), 2.5, or 7.5 mg/kg/d, 20 days.
The positive control animals received 5 mg/kg/d doxorubicin intraperitoneally (i.p.), and the blank group mice received PBS solution containing 1% DMSO i.p., 5 mL/kg/d.
Female BALB/cASlac-nu mice (SLAC LABORATORY ANIMAL, Shanghai), ages 4 to 5 weeks, were used in this procedure. Animals were maintained according to the guidelines established by the National Institutes of Health.
The Human Colon Carcinoma HCT116 were grown in RPMI-1640 medium with 10% fetal calf serum and L-glutamine, and the cells were maintained using standard tissue culture conditions.
For the production of s.c. tumors, 1×10^7 cells in 0.1 mL of medium without serum were inoculated in the right flank of mice. After the tumors were implanted and reached a palpable size, the mice were randomized into control and treatment groups (n=6)
Subcutaneous tumors were measured with caliper, and the weight of the animals recorded at least three times a week. Tumor volume was estimated from caliper measurements of two perpendicular dimensions of the tumor in millimeters using the formula:
Tumor Volume(mm^3)=length(mm)×width(mm)^2/2
Tumor Inhibition Ratio (%)=(the blank group tumor weight average−the treatment group tumor weight average)/the blank group tumor weight average×100
Relative Tumor Volume (RTV)=Vt/V0. V0: the tumor volume measured at the time of randomization; Vt: the tumor volume measured each time during the administration.
Relative Increment Ratio T/C (%)=the treatment group(T) RTV/the blank control group(C) RTV×100. T/C(%)>40: inefficacy; T/C(%)≦40, and P<0.05: utility.

COc1cc(OC)c(C2=CCNCC2)c(O)c1C(=O)/C=C/c1ccccc1Cl [Compound B2, (E)-3-(2-chlorophenyl)-1-(2-hydroxy-4,6-dimethoxy-3-(1,2,3,6-tetrahydropyridine-4-yl)phenyl)-2-propylene-1-one]
pIC50 [1]: 7.00 | % inhibit. (tumor inhibition ratio by tumor weight) ([2]; 2.5 mg/kg/d × 20 d i.p.): 88.2% | RTV (relative tumor volume Vt/V0) ([2]; 2.5 mg/kg/d × 20 d i.p.): 2.86 ± 0.202 | TIV (%) ([2]; 2.5 mg/kg/d × 20 d i.p.): 19.0% | Tumor wgt. ([2]; 2.5 mg/kg/d × 20 d i.p.): 0.041 ± 0.0093 g | Tumor vol. (mm^3) Final ([2]; 2.5 mg/kg/d × 20 d i.p.): 121 ± 78.2 mm^3 | Tumor vol. (mm^3) Initial ([2]; 2.5 mg/kg/d × 20 d i.p.): 53 ± 28.0 mm^3 | % inhibit. (tumor inhibition ratio by tumor weight) ([2]; 7.5 mg/kg/d × 20 d i.p.): −25.6% | RTV (relative tumor volume Vt/V0) ([2]; 7.5 mg/kg/d × 20 d i.p.): 12.57 ± 0.667 | TIV (%) ([2]; 7.5 mg/kg/d × 20 d i.p.): 83.3% | Tumor wgt. ([2]; 7.5 mg/kg/d × 20 d i.p.): 0.437 ± 0.3105 g | Tumor vol. (mm^3) Final ([2]; 7.5 mg/kg/d × 20 d i.p.): 777 ± 459.5 mm^3 | Tumor vol. (mm^3) Initial ([2]; 7.5 mg/kg/d × 20 d i.p.): 58 ± 39.7 mm^3 | optimal T/C (relative increment ratio) ([2]; HCT116 xenografts, dosage of 2.5 mg/kg/day): 19.0% | toxicity during the administration ([2]; two B2 treatment groups, 2.5 or 7.5 mg/kg/d i.p., 20 days): no significant toxicity was found
